Usually IC50 stands for the midpoint of a concentration-inhibition curve. Read a low IC50 as higher potency.

The target of experiment [1] is Arachidonate 5-lipoxygenase (Cavia porcellus). In words: In vitro 5-lipoxygenase inhibition in guinea pig PMNs was determined based on LTB4 production.
Experiment [2] shares this target. The experiment can be described thus: In vitro 5-lipoxygenase inhibition in guinea pig PMNs was determined based on 5-hydroxyeicosapentaenoic acid (5-HETE) production.

Regarding `NC(=O)N(O)CC1=Cc2ccc(Oc3ccccc3)cc2OCC1` [N-hydroxy-N-[(8-phenoxy-2,3-dihydro-1-benzoxepin-4-yl)methyl]urea], the values for the IC50 in experiment [1] and in experiment [2] were 210 nM and 180 nM, respectively.
With `NC(=O)N(O)CC1=Cc2cc(Oc3ccc(F)cc3)ccc2OCC1` [N-{[7-(4-fluorophenoxy)-2,3-dihydro-1-benzoxepin-4-yl]methyl}-N-hydroxyurea], the values for the IC50 in experiment [1] and in experiment [2] were 98 nM and 91 nM, respectively.
In the same order, the values of `NC(=O)N(O)CC1=Cc2cc(Oc3ccccc3)ccc2SCC1` [N-hydroxy-N-[(7-phenoxy-2,3-dihydro-1-benzothiepin-4-yl)methyl]urea] are 130 nM and 120 nM.
In the same order, the values of `CNC(=O)N(O)CC1=Cc2cc(Oc3ccc(F)cc3)ccc2OCC1` [N-{[7-(4-fluorophenoxy)-2,3-dihydro-1-benzoxepin-4-yl]methyl}-N-hydroxy-N'-methylurea] are 130 nM and 100 nM.
`NC(=O)N(O)CC1=Cc2cc(Oc3ccccc3)ccc2OCC1` [N-hydroxy-N-[(7-phenoxy-2,3-dihydro-1-benzoxepin-4-yl)methyl]urea]: the IC50 in experiment [1] is 91 nM; in experiment [2], 89 nM.

The values above are taken from BindingDB's records for doi:10.1016/S0960-894X(01)80152-9 (1994).
